Measurements taken from ChEMBL document CHEMBL1122428, “Folate analogues. 20. Synthesis and antifolate activity of 1',2',3',4',5',6'-hexahydrohomofolic acid” (J Med Chem, 1983).

Experiments:
Enterococcus faecium [1] = test: Evaluated for the bacterial growth inhibition and the concentration required for 50% inhibition against Streptococcus faecium (MTX resistant); type: functional, organism-based
Enterococcus faecium [2] = test: Evaluated for the bacterial growth inhibition and the concentration required for 50% inhibition against Streptococcus faecium ATCC 8043 strain; type: functional, organism-based

Row | SMILES | Concentration (Enterococcus faecium [1]) | Concentration (Enterococcus faecium [2])
1 | Nc1nc(O)c2c(n1)NCC(CCN[C@H]1CC[C@@H](C(=O)NC(CCC(=O)O)C(=O)O)CC1)N2 (some centres not stated) | > 2000 ng/mL | 38 ng/mL
2 | Nc1nc(O)c2nc(CCN[C@H]3CC[C@@H](C(=O)NC(CCC(=O)O)C(=O)O)CC3)cnc2n1 (some centres not stated) | > 2000 ng/mL | 2000 ng/mL
3 | Nc1nc(O)c2c(n1)NCC(CCNC1CCC(C(=O)O)CC1)N2 (configuration not stated) | > 2000 ng/mL | 260 ng/mL
4 | Nc1nc(O)c2nc(CCNC3CCC(C(=O)O)CC3)cnc2n1 (configuration not stated) | > 2000 ng/mL | > 2000 ng/mL
5 | Nc1nc(O)c2c(n1)NCC(CCN[C@H]1CC[C@@H](C(=O)NC(CCC(=O)O)C(=O)O)CC1)=N2 (some centres not stated) | > 2000 ng/mL | 30 ng/mL
6 | Nc1nc(O)c2c(n1)NCC(CCNC1CCC(C(=O)O)CC1)=N2 (configuration not stated) | > 2000 ng/mL | 130 ng/mL
